How the values were obtained:
Cannabinoid receptor 1 = Cannabinoid receptor 1 (Rattus norvegicus, UniProt P20272); assay: Displacement of [3H]CP-55940 from rat brain CB1 receptor
Cannabinoid receptor 2 = Cannabinoid receptor 2 (Mus musculus, UniProt P47936); assay: Displacement of [3H]CP-55940 from mouse spleen CB2 receptor; format: tissue-based
[1] = Selectivity for rat CB1 receptor over mouse CB2 receptor

Cannabinoid receptor 2, sequence (P47936 whole entry): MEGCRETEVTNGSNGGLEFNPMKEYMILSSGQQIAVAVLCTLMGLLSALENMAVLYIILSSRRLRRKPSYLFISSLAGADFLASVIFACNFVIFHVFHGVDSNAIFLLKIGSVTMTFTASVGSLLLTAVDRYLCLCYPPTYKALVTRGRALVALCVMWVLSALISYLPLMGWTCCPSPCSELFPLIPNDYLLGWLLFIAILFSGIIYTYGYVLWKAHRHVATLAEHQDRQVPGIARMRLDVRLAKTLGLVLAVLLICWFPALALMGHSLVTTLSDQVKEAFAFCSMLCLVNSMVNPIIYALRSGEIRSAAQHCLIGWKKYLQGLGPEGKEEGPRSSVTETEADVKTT
Cannabinoid receptor 1, sequence (P20272 whole entry): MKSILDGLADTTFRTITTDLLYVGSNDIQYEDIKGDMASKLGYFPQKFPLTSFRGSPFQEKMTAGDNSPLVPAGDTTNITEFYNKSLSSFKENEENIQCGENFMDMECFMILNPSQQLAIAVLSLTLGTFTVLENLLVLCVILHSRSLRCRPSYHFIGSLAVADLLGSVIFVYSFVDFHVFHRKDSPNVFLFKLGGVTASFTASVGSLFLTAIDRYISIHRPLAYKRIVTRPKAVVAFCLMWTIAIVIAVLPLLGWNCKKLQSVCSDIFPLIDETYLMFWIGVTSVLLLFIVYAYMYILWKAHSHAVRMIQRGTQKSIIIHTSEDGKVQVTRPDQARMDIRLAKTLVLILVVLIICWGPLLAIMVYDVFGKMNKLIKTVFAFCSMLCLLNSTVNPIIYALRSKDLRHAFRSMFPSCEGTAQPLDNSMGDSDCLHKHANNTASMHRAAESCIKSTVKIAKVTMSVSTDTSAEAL

| SMILES | Ki (Cannabinoid receptor 1) [nM] | Ki (Cannabinoid receptor 2) [nM] | Ratio Ki [1] |
| --- | --- | --- | --- |
| CCCc1ccc(-c2cc(O)c3c(c2)OC(C)(C)[C@@H]2CC=C(C)C[C@@H]32)cc1 | 57.8 | 108 | 0.5 |
| CC1=CC[C@@H]2[C@@H](C1)c1c(O)cc(-c3ccc(C)cc3)cc1OC2(C)C | 95.5 | 71.8 | 1.3 |
| CCCCCc1cc(O)c2c(c1)OC(C)(C)[C@@H]1CC=C(C)C[C@@H]21 | – | – | 1.2 |
| C=C(C)[C@@H]1CCC(C)=C[C@H]1c1c(O)cc(C2(C#N)CCCC2)cc1O | 255 | 105 | 2.4 |
| CC1=CC[C@@H]2[C@@H](C1)c1c(O)cc(C3(C#N)CCCC3)cc1OC2(C)C | 27.9 | 25.2 | 1.1 |
| CC1=CC[C@@H]2[C@@H](C1)c1c(O)cc(C34CC5CC(CC(C5)C3)C4)cc1OC2(C)C | – | – | 0.1 |
| C=C(C)[C@@H]1CCC(C)=C[C@H]1c1c(O)cc(C2(C#N)CCCCC2)cc1O | 319 | 111 | 2.9 |
| CC1=CC[C@@H]2[C@@H](C1)c1c(O)cc(C3(C#N)CCCCC3)cc1OC2(C)C | 8.26 | 3.86 | 2.1 |
| C=C(C)[C@@H]1CCC(C)=C[C@H]1c1c(O)cc(-c2ccc(C)cc2)cc1O | 638 | 374 | 1.7 |
| CCCCCC#Cc1cc(O)c2c(c1)OC(C)(C)[C@@H]1CC=C(C)C[C@@H]21 | – | – | 0.2 |
| CC1=CC[C@@H]2[C@@H](C1)c1c(O)cc(-c3cccc4ccccc34)cc1OC2(C)C | 11.7 | 9.39 | 1.2 |
| C=C(C)[C@@H]1CCC(C)=C[C@H]1c1c(O)cc(-c2cccc3ccccc23)cc1O | 754 | 222 | 3.4 |
| CCc1ccc(-c2cc(O)c3c(c2)OC(C)(C)[C@@H]2CC=C(C)C[C@@H]32)cc1 | 119 | 51.7 | 2.3 |

— ChEMBL document CHEMBL1146054, “Structural modifications of the cannabinoid side chain towards C3-aryl and 1',1'-cycloalkyl-1'-cyano cannabinoids” (Bioorg Med Chem Lett, 2006)
